The record followed here is paper PMC6028453, “BrlR from Pseudomonas aeruginosa is a receptor for both cyclic di-GMP and pyocyanin” (Nature Communications, 2018).

In test [1] the target is T1, BrlR mutant R31A (Pseudomonas aeruginosa, UniProt Q9HUT5, R31A).
T1 construct: His6-SUMO (N, cleaved yes); made in house; host or cells: E. coli BL21 DE3
Nature of the test: FP binding assay, BrlR R31A. The procedure: (§1) F-c-di-GMP and F-c-di-AMP both contain a fluorophore at one of the 2′-ribose hydroxyls of c-di-GMP and c-di-AMP, respectively (Fig. 2f). To measure the binding of c-di-GMP and c-di-AMP to BrlR variants, 1 nM F-c-di-GMP or F-c-di-AMP was incubated with increasing amounts of indicated BrlR WT, BrlR mutation, or BrlR-C in reaction buffer (25 mM HEPES, 100 mM NaCl, pH 7.5) at 25 °C for 20 min. 1 nM fluorescein was incubated with BrlR WT in the same reaction buffer at 25 °C. FP measurements were conducted on a Synergy 4 Microplate Reader (BioTek) at 25 °C. All experiments were performed in triplicate. The curves were fitted to deduce binding affinities by GraphPad Prism 5.
(§2) BrlR–c-di-GMPs interactions in two separate c-di-GMP binding sites
(§3) In the first binding site, c-di-GMP is half accommodated by the antiparallel β-sheet and two residues (M1 and D35). In detail, the backbone amide protons of the first M1 residue form a hydrogen bond (H-bond) with the phosphate oxygen atom of c-di-GMP, and the side chain of R31 forms two H-bonds with the Gua1 base. The residue D35 also forms an H-bond with the Gua1 base. The aromatic ring of Y40 interacts with the Gua1 base through a hydrophobic π-π interaction. In addition, the hydroxyl group of the Y270 side chain from another subunit interacts with the phosphate 2 of c-di-GMP via an H-bond (Fig. 2d). […]

For test [2], the target named is T2, BrlR mutant Y40A (Pseudomonas aeruginosa, UniProt Q9HUT5, Y40A).
T2 construct: His6-SUMO (N, cleaved yes); made in house; host or cells: E. coli BL21 DE3
T2 sequence (Q9HUT5 whole entry Y40A): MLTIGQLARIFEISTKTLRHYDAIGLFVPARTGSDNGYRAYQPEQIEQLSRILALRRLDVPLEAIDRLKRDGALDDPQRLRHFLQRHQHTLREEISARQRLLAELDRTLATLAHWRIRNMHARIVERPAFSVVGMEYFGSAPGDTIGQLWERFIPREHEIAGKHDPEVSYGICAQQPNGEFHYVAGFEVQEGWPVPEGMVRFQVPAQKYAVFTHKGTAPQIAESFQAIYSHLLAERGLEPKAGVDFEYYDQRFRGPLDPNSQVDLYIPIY
Nature of the test: FP binding assay, BrlR Y40A. As for the experimental part: as §1, §2, §3

Test [3] deals with T3, BrlR D35A DNA binding (Pseudomonas aeruginosa, UniProt Q9HUT5, D35A).
T3 construct: His6-SUMO (N, cleaved yes); made in house; host or cells: E. coli BL21 DE3
T3 sequence (Q9HUT5 whole entry D35A): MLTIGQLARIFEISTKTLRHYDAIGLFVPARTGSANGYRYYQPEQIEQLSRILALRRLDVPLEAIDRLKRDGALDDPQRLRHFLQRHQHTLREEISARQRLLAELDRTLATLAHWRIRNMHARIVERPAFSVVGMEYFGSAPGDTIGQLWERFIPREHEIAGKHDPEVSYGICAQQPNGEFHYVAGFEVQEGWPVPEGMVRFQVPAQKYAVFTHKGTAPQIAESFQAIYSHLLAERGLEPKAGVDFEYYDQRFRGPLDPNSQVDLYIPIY
Nature of the test: EMSA, BrlR D35A. It is filed as biochemical. The procedure:
A 6-carboxy-fluorescein (FAM)-labeled 36-bp brlR promoter DNA (PbrlR) or 80-bp mexA/mexE promoter DNA (PmexA/PmexE) probes (~0.375 pmol), BrlR protein and varying amounts of inducers were incubated in binding buffer (10 mM Tris HCl [pH 7.4], 50 mM KCl, 1 mM DTT, […] and 5 ng/mL poly [dI-dC]) for 60 min at 25 °C. Finally, glycerol was added to a concentration of 6.5%. The samples were subjected to a 5% polyacrylamide gel electrophoresis and run in 0.5 × Tris-borate-EDTA buffer at 80 V for 1 h at room temperature. Imaging and data analyses were performed using a Typhoon Scanner (GE Healthcare) and Imagequant software. The probes used are listed in Supplementary Table 1.

The subject of test [4] is brlR promoter activity (C2E mut1). Nature of the test: β-galactosidase assay, C2E mut1. It is filed as cell-based, Pseudomonas aeruginosa. As for the experimental part:
We also performed β-galactosidase activity assays using a PbrlR-brlR-lacZ reporter construct to investigate the transcriptional function of BrlR mutants in vivo. […] To confirm the effect of c-di-GMP in P. aeruginosa, we carried out real-time quantitative PCR analyses. Following a previous report, we introduced the diguanylate cyclase PA4843 into a WT P. aeruginosa strain carrying either pHERD20T-empty or pHERD20T-PA4843. The transcription level of brlR was analyzed using the brlR 5 F and brlR 3 R primers (Supplementary Table 1). The transcriptional level of brlR in pHERD20T-PA4843 strain is 4.5 ± 1.3-fold higher than that in the pHERD20T-empty strain (Fig. 4h).
β-galactosidase activity was assayed with P. aeruginosa PA01 ΔbrlR strain carrying plasmid pME6522-borne transcriptional lacZ fusions. P. aeruginosa carrying the empty vector was used as the […]. The reporter plasmids are derivatives of the pME6522 plasmid in which multiple cloning sites were inserted before the LacZ with the promoter and coding regions of brlR with diverse mutations. These reporter plasmids were transformed into the reporter strain. Overnight cultures were diluted 20-fold with LB medium supplemented with appropriate antibiotics. […]

T1 sequence (Q9HUT5 whole entry R31A): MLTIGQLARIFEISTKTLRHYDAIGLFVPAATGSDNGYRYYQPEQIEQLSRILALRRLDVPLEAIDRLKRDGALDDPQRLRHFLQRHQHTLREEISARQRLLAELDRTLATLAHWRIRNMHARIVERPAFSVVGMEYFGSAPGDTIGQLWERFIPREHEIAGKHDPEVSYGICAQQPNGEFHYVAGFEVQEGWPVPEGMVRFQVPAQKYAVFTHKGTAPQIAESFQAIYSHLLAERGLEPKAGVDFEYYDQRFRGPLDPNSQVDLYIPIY

What is called Kd is the concentration at which binding is half-saturated. As to `Nc1nc2c(ncn2[C@@H]2O[C@@H]3COP(=O)(O)O[C@H]4[C@@H](O)[C@H](n5cnc6c(=O)[nH]c(N)nc65)O[C@@H]4COP(=O)(O)O[C@H]3[C@H]2O)c(=O)[nH]1` [c-di-GMP, cyclic diguanylate monophosphate], the Kd in test [1] came out at 42.7 ± 5.4 µM; in test [2] it was 34.2 ± 2.6 µM. In addition, the “DNA bound in the presence vs absence of c-di-GMP” value in test [3] is ~ 4.8 fold. Further, in test [4], the “increase at high vs low c-di-GMP concentration (β-galactosidase activity)” value is given as 2.0 fold.
